Experimental data taken from ChEMBL document CHEMBL4613261, “Metabolic and Pharmaceutical Aspects of Fluorinated Compounds” (J Med Chem, 2020).
Values after ≈ are worked out from the molar mass of the structure shown.

How the values were obtained:
[1] = Drug metabolism in Sprague-Dawley rat kidney assessed as fluoro-acetic acid metabolite level at 100 mg/kg, po measured after 2 to 8 hrs; format: ADME, organism-based; details: in vivo
[2] = Drug metabolism in Sprague-Dawley rat liver assessed as fluoro-acetic acid metabolite level at 100 mg/kg, po measured after 2 to 8 hrs; format: ADME, organism-based; details: in vivo
[3] = Drug metabolism in Sprague-Dawley rat heart assessed as fluoro-acetic acid metabolite level at 100 mg/kg, po measured after 2 to 8 hrs; format: ADME, organism-based; details: in vivo
Adenosine deaminase [4] = biological target: T1, Adenosine deaminase (Rattus norvegicus, UniProt Q920P6); assay: Prodrug conversion in rat blood assessed as rate of adenosine deaminase-mediated didanosine formation by HPLC analysis; format: ADME, tissue-based
T1 sequence (Q920P6 whole entry): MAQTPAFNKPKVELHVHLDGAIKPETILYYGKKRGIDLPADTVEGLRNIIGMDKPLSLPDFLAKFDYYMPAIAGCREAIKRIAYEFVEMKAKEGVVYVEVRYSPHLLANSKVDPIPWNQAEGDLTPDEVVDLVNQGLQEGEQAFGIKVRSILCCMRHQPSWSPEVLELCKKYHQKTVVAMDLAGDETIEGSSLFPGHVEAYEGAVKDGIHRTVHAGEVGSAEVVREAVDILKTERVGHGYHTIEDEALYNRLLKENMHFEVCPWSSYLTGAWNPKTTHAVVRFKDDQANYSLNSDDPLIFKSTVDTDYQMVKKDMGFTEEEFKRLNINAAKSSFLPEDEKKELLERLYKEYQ

Adenosine deaminase [5] = biological target: T1, Adenosine deaminase; assay: Prodrug conversion in rat brain assessed as rate of adenosine deaminase-mediated didanosine formation by HPLC analysis; format: ADME, tissue-based; details: in vivo
[6] = Apparent half life in rat blood; format: ADME, tissue-based
[7] = Apparent half life in rat brain; format: ADME, tissue-based
[8] = Prodrug conversion in rat brain assessed as total fraction of didanosine formation by HPLC analysis; format: ADME, tissue-based; details: in vivo
[9] = Prodrug conversion in rat blood assessed as rate of didanosine formation by HPLC analysis; format: ADME, tissue-based
[10] = Prodrug conversion in rat brain assessed as rate of didanosine formation by HPLC analysis; format: ADME, tissue-based; details: in vivo
[11] = Prodrug conversion in rat blood assessed as total fraction of didanosine formation by HPLC analysis; format: ADME, tissue-based
[12] = Clearance in human liver microsomes assessed per mg protein; format: ADME, Microsome
[13] = Solubility of the compound in aqueous buffer at pH 6.5; format: physicochemical
[14] = biological target: Alanine racemase, biosynthetic (Escherichia coli K-12, UniProt P0A6B4); assay: Substrate activity at Escherichia coli B alanine racemase assessed as partition ratio by measuring ratio of turnover rate to inactivation rate
Alanine racemase, biosynthetic, sequence (P0A6B4 whole entry): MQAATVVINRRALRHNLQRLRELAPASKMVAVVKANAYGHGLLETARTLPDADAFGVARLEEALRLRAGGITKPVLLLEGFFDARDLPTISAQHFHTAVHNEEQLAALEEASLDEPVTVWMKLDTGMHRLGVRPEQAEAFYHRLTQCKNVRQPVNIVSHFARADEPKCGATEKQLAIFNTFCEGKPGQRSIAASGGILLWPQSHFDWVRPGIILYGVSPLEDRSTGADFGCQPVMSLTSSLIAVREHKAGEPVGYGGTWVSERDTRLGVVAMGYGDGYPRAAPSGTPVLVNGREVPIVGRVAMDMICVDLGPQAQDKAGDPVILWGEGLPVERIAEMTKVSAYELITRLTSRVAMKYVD

[15] = biological target: T2, MGST1 (microsomal glutathione S-transferase 1) (Rattus norvegicus, UniProt P08011); assay: Substrate activity at MGST1 in rat liver microsomes assessed as substrate depletion at 50 uM incubated for 30 mins in presence of GSH by liquid chromatography/mass spectrometry; format: ADME; details: read-out: Activity
T2 sequence (P08011 whole entry): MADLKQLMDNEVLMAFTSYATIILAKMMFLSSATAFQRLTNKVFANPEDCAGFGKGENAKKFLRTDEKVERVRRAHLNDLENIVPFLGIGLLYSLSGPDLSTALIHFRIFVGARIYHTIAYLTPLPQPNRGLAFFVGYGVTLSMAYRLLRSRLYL

Lysine decarboxylase = biological target: T3, Lysine decarboxylase (Hafnia alvei, UniProt P05033); assay: Time dependent inhibition of Hafnia alvei lysine decarboxylase using L-lysine by Kitz-Wilson analysis
T3 sequence (P05033 whole entry): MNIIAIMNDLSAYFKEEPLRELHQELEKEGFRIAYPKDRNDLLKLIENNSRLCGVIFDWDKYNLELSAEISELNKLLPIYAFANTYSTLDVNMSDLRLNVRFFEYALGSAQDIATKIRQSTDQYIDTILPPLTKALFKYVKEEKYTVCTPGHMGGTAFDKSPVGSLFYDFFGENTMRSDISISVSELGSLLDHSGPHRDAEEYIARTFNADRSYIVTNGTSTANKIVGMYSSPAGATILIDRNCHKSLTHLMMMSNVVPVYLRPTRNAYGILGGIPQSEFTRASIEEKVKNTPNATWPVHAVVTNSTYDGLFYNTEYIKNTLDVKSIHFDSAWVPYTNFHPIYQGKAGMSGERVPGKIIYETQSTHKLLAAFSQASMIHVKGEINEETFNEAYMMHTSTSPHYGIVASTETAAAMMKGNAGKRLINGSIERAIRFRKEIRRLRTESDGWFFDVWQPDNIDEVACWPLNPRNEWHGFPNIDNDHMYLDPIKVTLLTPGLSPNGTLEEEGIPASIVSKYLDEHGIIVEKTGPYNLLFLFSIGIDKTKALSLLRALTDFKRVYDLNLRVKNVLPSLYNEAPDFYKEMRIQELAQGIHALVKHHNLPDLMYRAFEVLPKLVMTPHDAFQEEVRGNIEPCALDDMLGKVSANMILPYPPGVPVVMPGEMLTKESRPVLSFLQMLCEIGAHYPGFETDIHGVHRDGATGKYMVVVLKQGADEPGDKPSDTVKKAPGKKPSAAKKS

[16] = Lipophilicity, log P of the compound; details: octanol/water
[17] = Intrinsic clearance in human liver microsome; format: ADME; details: liver microsomes, read-out: CLH
[18] = Protein binding in human plasma
[19] = Aqueous solubility of the compound in pH 6.8 buffer; details: pH 6.8 buffer
[20] = biological target: T4, Microsomal glutathione S-transferase 1 (Rattus norvegicus, UniProt P08011); assay: Substrate activity at MGST1 in rat liver microsomes assessed as reactivity rate at 50 uM incubated for 1 to 40 mins in presence of GSH by liquid chromatography/mass spectrometry
T4 sequence (P08011 whole entry): T2 sequence (P08011 whole entry)

[21] = Acute toxicity in rat measured after 4 hrs; details: in vivo
[22] = Lipophilicity, log P of the compound by C18 reverse phase HPLC; format: physicochemical

C[C@H](NC(=O)[C@H](Cc1ccccc1)NC(=O)OCc1ccccc1)C(=O)CF
Drug metabolism [1]: 0.2 to 0.9 µg/g | Drug metabolism [2]: 0.2 to 0.9 µg/g | Drug metabolism [3]: 0.2 to 0.9 µg/g

OC[C@@H]1CC[C@H](n2cnc3c(F)ncnc32)O1
K (Adenosine deaminase [4]): 0.15 min⁻¹ | K (Adenosine deaminase [5]): 1.51 min⁻¹ | half-life [6]: 3.5 min | half-life [7]: 0.46 min | Fm [8]: 1 | K [9]: 0.13 min⁻¹ | K [10]: 0 min⁻¹ | Fm [11]: 0.54

OC[C@@H]1CC[C@H](n2cnc3c(Cl)ncnc32)O1
K (Adenosine deaminase [4]): 3 ×10⁻³ /min | K (Adenosine deaminase [5]): 0.032 min⁻¹ | half-life [6]: 270 min | half-life [7]: 19 min | Fm [8]: 1 | K [9]: 7.4 ×10⁻³ /min | K [10]: 0 min⁻¹ | Fm [11]: 0.28

FCC(F)Cc1c[nH]c2ccccc12 (centres undefined)
CLH [12]: 212 min⁻¹ µL⁻¹ | solubility [13]: > 1720 µM

N[C@@H](CF)C(=O)O
Ratio [14]: 790

Clc1cccnc1Cl
metabolised at 0.5 h, 50 µM [15]: 26%

N[C@H](C(=O)O)C(F)F
Ratio [14]: 5000

Oc1cccnc1Cl
metabolised at 0.5 h, 50 µM [15]: < 5%

OC[C@@H]1CC[C@H](n2cnc3c(Br)ncnc32)O1
half-life [6]: 280 min | half-life [7]: 20 min

Nc1cccnc1Cl
metabolised at 0.5 h, 50 µM [15]: < 5%

N[C@@H](C(=O)O)C(F)F
Ratio [14]: 2600

C=C(F)[C@](N)(CCCCN)C(=O)O
Ki (Lysine decarboxylase): 630 µM

O=[N+]([O-])c1cn2c(n1)OC[C@@H](OCc1ccc(SC(F)(F)F)cc1)C2
logP [16]: 2.7 | microsomal CLint [17]: < 25 µL/min/mg | fraction unbound [18]: 0.4 | solubility [19]: 5 µM (≈ 1.88 µg/mL)

O=[N+]([O-])c1cccnc1Cl
Activity [20]: 236 nmol/min/mg | metabolised at 0.5 h, 50 µM [15]: 100%

OC[C@@H]1CC[C@H](n2cnc3c(I)ncnc32)O1
half-life [6]: 1690 min | half-life [7]: 178 min

FC(F)=C(F)C(F)(F)F
Activity [21]: 3000 ppm

COc1cccnc1Cl
metabolised at 0.5 h, 50 µM [15]: 17%

C=C(F)[C@@](N)(CCCCN)C(=O)O
Ki (Lysine decarboxylase): 470 µM

FC(F)(F)Oc1ccccc1
logP [22]: 3.35

FC(F)(F)c1cccnc1Cl
metabolised at 0.5 h, 50 µM [15]: 31%

CC(F)(F)Oc1ccccc1
logP [22]: 2.87
